We go through one compound from patent publication US20060014726A1, “Derivatives of cyclic1, 3- propanediol phosphate and their action in differentiation therapy” (priority 2002, published 2006).

The structures appear in SMILES notation. Like-named read-outs stand apart in the source and are kept apart here.

One data set has as its system PR mRNA in MCF-7 cells. In words: Quantitative RT-PCR of PR mRNA in MCF-7 cells. Conditions: 20 μM. It is filed as cell-based, human. As to the method:
(§1) It should however be understood that the augmented expression of ER-α and PR presented in FIGS. 1-3 could have in principle originated from increase in either transcription or translation associated with the respective steroid receptor genes. Therefore the effects of long term incubation with 1,3cPP on the respective ER-α and PR mRNA levels were examined. Quantitative RT-PCR was carried out with a Light Cycler as described. […] In contrast, only 20 μM 1,3-cPP were required to induce 7-fold increase in the ER-α mRNA in T47D clone 8 cells (FIG. 4D). […]
(§2) RT-PCR was carried out on a programmable thermal controller instrument according to standard protocols, where the annealing temperatures were 58° C. for ER-α and 56° C. for PR. […] The PCR products were diluted and used to build a standard curve for the quantitative PCR which was carried out in a Light Cycler instrument (Roche Diagnostics, Mannheim, Germany). […] For each control and test sample, the amount of the constitutively expressed house keeping enzyme glyceraldehyde-3-phosphate dehydrogenase (GAPDH) mRNA was quantified by using appropriate primers and the quantity of ER-α and PR mRNA were normalized to the quantity of GAPDH mRNA in each sample. The relative amounts of ER-α and PR mRNA were expressed as normalized 1,3cPP treatment values divided by the normalized control values.

Another data set concerns K562 cells. On the procedure:
It is known from the literature that sodium butyrate derives K562 cells into the erythroid differentiation program (Sutherland et al. 1986). Base on such an observation, the ability of 1,3-cPP alone or in combination with sodium butyrate may trigger the erythroid differentiation program manifested by hemoglobin production.
K562 cells were incubated for 5 days in the presence or absence of 10 or 50 μM 1,3cPP and 1 mM butyric acid as a differentiating agent. Quantitative measurements of hemoglobin production was determined by staining of lysed cells with benzidine-peroxide reagent. The benzidine-peroxide reagent was prepared by dissolving 3,3′,5,5′-tetramethyl benzidine in 90% acetic acid and mixing with an equal volume of freshly prepared 1% hydrogen peroxide. Cell lysate, obtained by hypotonic lysing of 5×10^4 cells in 0.1 ml distilled water, was added to 0.1 ml benzidine reagent and incubated at room temperature for 10 minutes in the dark. Absorbance was measured at 515 nm and was taken as a relative index of the hemoglobin level.

In a further data set the test system is ER-α mRNA in MCF-7 cells. In words: Quantitative RT-PCR of ER-α mRNA in MCF-7 cells. It is filed as cell-based, human. As to the method: It should however be understood that the augmented expression of ER-α and PR presented in FIGS. 1-3 could have in principle originated from increase in either transcription or translation associated with the respective steroid receptor genes. Therefore the effects of long term incubation with 1,3cPP on the respective ER-α and PR mRNA levels were examined. Quantitative RT-PCR was carried out with a Light Cycler as described. […] In contrast, only 20 μM 1,3-cPP were required to induce 7-fold increase in the ER-α mRNA in T47D clone 8 cells (FIG. 4D). The analogous data for PR are depicted for MCF-7 cells in FIGS. 5A-B where at 20 μM, there was a 3 fold increase in the normalized PR mRNA expression on the 8th day. This increase receded to about 1.5-fold by the 11th day.
MCF-7 and T47D cells were cultured and treated as described above. Total cellular RNA was extracted with TRI reagent according to the manufacturer's instructions (Molecular Research Center, Inc. Cincinnati, Ohio). Reverse transcription (RT) was performed in a total reaction mixture of 20 μl with 1-5 μg RNA by first heating to 65° C. for 5 min in the presence of 25 μg/ml Oligo (dT)12-18, and 0.5 mM deoxynucleotide triphosphates (dNTP). The RT reaction mixture was then quickly cooled on ice. […]
as §2

Data set [1] relates to ER-α mRNA in T47D clone 8 cells. In words: Quantitative RT-PCR of ER-α mRNA in T47D clone 8 cells. Format: cell-based, human. Conditions: 20 μM, 6 days (FIG. 4D). As to the method: as §1, §2
Another data set in a line: Acute toxicity testing. It is filed as in vivo. Conditions: CD-1 mice. On the procedure:
The acute toxicity of 1,3cPP was determined in CD-1 male and female mice, 8-12 weeks of age, via i.v., i.p. and p.o. routes of administration.

Regarding `O=P1(O)OCCCO1` [1,3-cPP, 1,3-cyclic propanediol phosphate], the “increase in the normalized PR mRNA expression” value in the data set on PR mRNA in MCF-7 cells (8th day) is listed as 3 fold; in the data set with PR mRNA in MCF-7 cells (11th day), “about 1.5 fold”. Also, the “baseline production of hemoglobin” value in the data set with K562 cells (K562 cells, 10 μM 1,3-cPP together with 1 mM sodium butyrate, 5 days) is “more than doubling”; in the data set on K562 cells (K562 cells, 50 μM 1,3-cPP together with 1 mM sodium butyrate, 5 days), “more than tripling”. Also, the hemoglobin production entry with K562 cells (K562 cells, 1,3-cPP alone, 5 days) is on record as “almost no effect”. Further, the cell viability result in the data set on K562 cells (K562 cells, all groups) is “over 85%”. Further, the “interaction with sodium butyrate on hemoglobin production and proliferation” value with K562 cells (K562 cells, combination with sodium butyrate (FIG. 7)) was “synergizes with sodium butyrate”. For the same compound, the total cell number result in the data set with K562 cells (K562 cells, fifth day, most prominently 50 μM 1,3-cPP together with 1 mM sodium butyrate) was “concurrent decrease”. In addition, the “increase in the normalized ER-α mRNA transcription” value stood at 10 fold with ER-α mRNA in MCF-7 cells (50 μM, 11th day); 6 fold with ER-α mRNA in MCF-7 cells (100 μM, day 6, normalized to GAPDH, relative to control); 6 fold in the data set with ER-α mRNA in MCF-7 cells (100 μM, day 14, normalized to GAPDH, relative to control). Further, the “increase in the ER-α mRNA” value in data set [1] was determined as 7 fold. In addition, in “Acute toxicity testing” (i.p., doses of 0.25-5.0 g/kg), the “acute 24 hr toxicity, pharmacotoxic effects” value is on record as “no pharmacotoxic effects were observed”. Besides, in “Acute toxicity testing” (i.v., i.p. and p.o.), the “toxicity classification following conventional criteria” value is given as “practically non-toxic substance”. In addition, the “acute toxicity, changes in body weight and behavior” value in the data set “Acute toxicity testing” (i.v., up to 1 g/kg) is on record as “no changes in body weight nor in behavior”; in “Acute toxicity testing” (p.o., up to 10 g/kg), “no changes in body weight nor in behavior”.
